Test results reported in patent US7786112B2, “Inhibitors of cyclin-dependent kinases, compositions and uses related thereto” (Agennix USA Inc., priority 2003, dated 2010).

Key:
[1] = system: HCT-116; assay: Calcein AM viability assay, HCT-116; type: cell-based; settings: Homo sapiens, HCT-116, non-protein adjusted, Table 6
Procedure: The potency of Cdk inhibitors, as measured by loss of cellular viability, was determined with the Calcein AM assay (Molecular Probes). Calcein AM is a substrate of intracellular esterases, which is cleaved only in viable cells to generate a fluorescent product that can be quantified with a fluorescent plate reader. The fluorescent signal is proportional to the number of viable cells, and thus loss of signal in response to the exposure of cells to Cdk inhibitors correlates with a loss of viability. This assay can distinguish cell cycle arrest, in which cells may still by viable, from loss of viability and is thus well suited for the evaluation of Cdk inhibitors. A compound that is a potent cytotoxic, may cause significant loss of cell viability in such assay.
Cellular IC50's were determined in the human colorectal carcinoma cell line, HCT-116, and the normal human fibroblast, IMR90. Protein adjusted IC50's were also determined in HCT-116.
HCT-116 or IMR90 cells were recovered from sub-confluent plates by trypsinization and 1,000 or 4,000 cells, respectively, were plated in 24-well dishes and incubated overnight at 37° C., 5% CO2. HCT-116 cells were cultured in RPMI-1640, 10% FCS, and IMR90 cells were cultured in Minimum Essential Medium-alpha, 10% FCS. After overnight incubation to allow adherence, the media was aspirated from each well and replaced with media containing a test compound at a concentration from 0 to 250 nM, spanning a total of 7 doses. The plates were returned to the incubator and cultured for an additional 72 hours (3 days). […] After 72-hours incubation with the test compound, the cells were washed twice with 1×PBS, taking special care to remove all residual buffer.
A 5 μM Calcein AM solution was prepared by dissolving a 50 μg aliquot of Calcein (Molecular Probes catalog # C3100) in 50 μl DMSO. After the Calcein had completely dissolved (10 minutes at room temperature), it was diluted into 10 ml PBS. Calcein/PBS (0.5 ml) was added to each well. The plates were incubated for 75 minutes at 37° C. (protected from light) and the fluorescent signal was read on a fluorescent plate reader (excitation 485/20 and emission 530/25).

[2] = target: T1, Cdk4/cyclin D1 (Homo sapiens, UniProt P11802); assay: Cdk4/cyclin D1 kinase assay (GST-Rb, glutathione-sepharose capture); type: biochemical; settings: Table 6
T1 construct: made in house; host or cells: Sf9 insect cells
T1 sequence (P11802 whole entry, species assumed): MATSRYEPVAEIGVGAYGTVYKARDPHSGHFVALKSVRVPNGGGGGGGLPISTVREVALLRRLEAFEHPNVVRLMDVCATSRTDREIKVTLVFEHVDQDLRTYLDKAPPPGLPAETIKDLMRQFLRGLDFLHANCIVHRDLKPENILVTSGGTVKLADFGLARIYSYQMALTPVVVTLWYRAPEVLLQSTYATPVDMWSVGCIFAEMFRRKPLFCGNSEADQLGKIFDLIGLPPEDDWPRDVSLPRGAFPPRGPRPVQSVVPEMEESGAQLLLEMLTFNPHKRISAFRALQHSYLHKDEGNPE
T1 sequence (P24385 whole entry partner, species assumed): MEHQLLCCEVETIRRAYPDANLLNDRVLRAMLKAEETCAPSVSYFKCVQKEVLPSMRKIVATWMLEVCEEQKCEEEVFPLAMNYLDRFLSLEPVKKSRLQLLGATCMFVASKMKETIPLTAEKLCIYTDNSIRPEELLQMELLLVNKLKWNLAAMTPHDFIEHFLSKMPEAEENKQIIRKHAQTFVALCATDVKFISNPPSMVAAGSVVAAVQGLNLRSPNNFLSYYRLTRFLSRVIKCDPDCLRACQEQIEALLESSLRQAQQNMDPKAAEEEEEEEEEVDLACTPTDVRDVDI
Description: (§1) Enzymes: Cdc2/cyclin B was obtained from commercial sources. Cdk2/his-cyclin Eshort was expressed in Sf9 cells. Cdk2/cyclin A, cdk4/cyclin D1, and cdk6/cyclin D2 were expressed in Sf9 cells. Protein kinase A (catalytic subunit, from bovine heart) and protein kinase C (mixed isozymes from rat brain) were obtained from commercial sources.
(§2) Substrates: Histone H1 was from commercial sources. GST-Rb is glutathione-S-transferase fused to the N-terminal of residues 379-928 of the Rb protein.
Cdk2/cyclin E, Cdk2/cyclin A, Cdk4/cyclin D1, and Cdk6/cyclin D2 activity was determined using a glutathione-sepharose capture assay. […] After washing the retained beads five time with phosphate-buffered saline containing 0.3% (w/v) Tween-20, the amount of ^33P incorporated was determined by scintillation counting after adding 100 μL scintillant. Relative activity was determined by dividing the amount of radioactivity incorporated in the presence of compound by the amount of radioactivity incorporated in a control experiment containing DMSO alone but no compound. The background radioactivity, determined in an experiment containing 50 mM disodium ethylenediamine tetraacetate in place of compound, was subtracted from all results before calculations.

[3] = target: T2, Cdc2/cyclin B (Homo sapiens, UniProt P06493); assay: Cdc2/cyclin B kinase assay (Histone H1, TCA precipitation); type: biochemical; settings: Table 6
T2 construct: purchased
T2 sequence (P06493 whole entry, species assumed): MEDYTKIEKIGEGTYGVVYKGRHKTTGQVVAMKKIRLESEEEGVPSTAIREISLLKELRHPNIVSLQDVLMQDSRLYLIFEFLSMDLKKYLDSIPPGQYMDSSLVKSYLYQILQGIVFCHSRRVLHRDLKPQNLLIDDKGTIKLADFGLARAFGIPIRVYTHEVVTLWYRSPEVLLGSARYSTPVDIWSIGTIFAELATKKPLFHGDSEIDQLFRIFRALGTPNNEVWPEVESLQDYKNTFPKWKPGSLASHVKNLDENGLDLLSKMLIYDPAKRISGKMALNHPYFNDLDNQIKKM
T2 sequence (P14635 whole entry partner, species assumed): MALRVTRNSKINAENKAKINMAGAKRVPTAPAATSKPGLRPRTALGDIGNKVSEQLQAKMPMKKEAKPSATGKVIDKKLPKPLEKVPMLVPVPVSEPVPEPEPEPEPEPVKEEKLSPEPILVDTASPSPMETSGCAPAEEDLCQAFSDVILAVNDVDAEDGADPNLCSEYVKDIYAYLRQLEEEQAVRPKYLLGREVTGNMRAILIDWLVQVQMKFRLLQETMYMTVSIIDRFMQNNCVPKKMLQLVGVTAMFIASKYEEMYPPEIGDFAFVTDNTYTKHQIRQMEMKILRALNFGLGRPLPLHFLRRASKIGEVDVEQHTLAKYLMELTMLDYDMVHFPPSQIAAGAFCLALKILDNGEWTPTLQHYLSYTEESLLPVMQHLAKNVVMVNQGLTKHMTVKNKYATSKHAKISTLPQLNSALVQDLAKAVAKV
Description: as §1, §2
Assays: Cdc2/cyclinB activity was determined by measuring incorporation of radio-activity from adenosine [γ-^32P]triphosphate into Histone H1 using a TCA precipitation assay. Cdc2/cyclin B kinase and Histone H1 were obtained from commercial sources. […] The filter was washed ten times with 25% (w/v) trichloroacetic acid, and the amount of incorporated ^32P was determined by scintillation counting after adding 100 μL scintillant (Microscint 20, Packard Instruments). Relative activity was determined by dividing the amount of radioactivity incorporated in the presence of compound by the amount of radioactivity incorporated in a control experiment containing DMSO alone but no compound. The background radioactivity, determined in an experiment containing 50 mM EDTA in place of compound, was subtracted from all results before calculations. […]

[4] = system: HCT-116 cells; assay: Cell cycle analysis with propidium iodide (FACS); type: cell-based, human; settings: HCT-116, PI FACS
Procedure: The percentage of cells in the G1, S and G2/M phases of the cell cycle was determined by staining DNA with propidium iodide and quantifying the number of cells with a 2N or 4N DNA complement by flow cytometry. Alterations in the distribution of cells across the cell cycle in response to exposure to the Cdk inhibitors was evaluated in this manner.
3 sets of HCT-116 cells (100,000 cells/set) were cultured in the presence of a test compound in T-25 flasks according to Table 1 below. Analysis was performed at 24, 48 and 72 hours. Adherent cells were collected by trypsinization, combined with floating cells in Falcon 12×75 flow cytometric tubes, and harvested by centrifugation. The media was decanted from the cell pellet, 100 μl of PI stain was added and the cells were incubated at 37° C. for 20-25 minutes. The cell count was preferably no greater than 2×10^6-4×10^6/ml. An equal volume (100 μl) of PI salt was then added to the cells, which were then incubated at 4° C. for 1-2 hours. The stained cells were analyzed on a Becton Dickinson FACScan flow cytometer. Samples were protected from light.

[5] = system: HCT-116 cells; assay: Clonogenic survival assay; type: cell-based, human; settings: HCT-116 clonogenic time-course, at 100 nM
Procedure: This assay was used to determine the concentration of a compound that results irreversible loss of viability after a specified period of exposure. Essentially, cells are exposed to compound for a period of 1, 2 or 5 days, and are then transferred to compound-free growth medium. After continued incubation in the compound-free medium for a number of days, the number of colonies recovered is counted as an estimate of the number of surviving cells.
Media (RPMI-1640, 10% FCS, pen/strep) was pre-warmed to 37° C. in a water bath. Cells were incubated and grown at 37° C., 5% CO2. Cells were recovered by trypsinization from sub-confluent plates and counted using a hemocytometer. 1×10^4 cells were plated in 25 mls of media in a 15 cm tissue culture dish. 14 plates were set up for each test compound, and were incubated overnight at 37° C. The compound was diluted into media at 7 concentrations and the media on the cells was replaced with that containing the test compound. Two plates were set up for each concentration of the compound to be tested, as well as two control plates without compound. […] Colonies were stained with crystal violet solution (0.4% crystal violet, 20% ethanol) for 5 minutes, washed twice with distilled water, and counted.

[6] = target: protein kinase C (mixed isozymes from rat brain); assay: Protein kinase C assay (Histone H1, TCA precipitation); type: biochemical; settings: Table 5; read-out: PKC IC50
Procedure: as §1
Protein kinase C and protein kinase A were assayed using a TCA precipitation assay with Histone H1 as a substrate. For protein kinase A, the final assay contained 50 mM Tris, 10 mM MgCl2, 1 mM dithiothreitol, pH 7.5, 12 μM adenosine triphosphate, 10% (v/v) dimethylsulfoxide (from compounds), 20 μg Histone H1, 2 μCi [γ-^32P] adenosine triphosphate, 0.2 U protein kinase A in a 100 μL assay. A protein kinase C assay contained 50 mM Tris, 10 mM MgCl2, 1 mM dithiothreitol, 0.8 mM CaCl2, pH 7.5, 5 μM adenosine triphosphate, 10% (v/v) dimethylsulfoxide (from compounds), 20 μg Histone H1, 2 μCi [γ-^32P] adenosine triphosphate, 0.01 U protein kinase C in a 50 μL assay. The assays were started by the addition of enzyme, allowed to react for 10 min at 30° C., and stopped by adding 0.4 volumes of 237 mM disodium ethylenediamine tetraacetate, 105 mM adenosine triphosphate, pH 8.0. […] The filters were washed ten times with 25% (w/v) trichloroacetic acid, and the amount of incorporated [^32P]phosphate was determined by adding 100 μl Microscint and scintillation counting.

Q: For COc1ccc(Cc2nc3c(c(C(C)C)nn3-c3c(Cl)cccc3Cl)c(=O)[nH]2)cc1 [Compound A67], which IC50 [1] is on record?
A: < 100 nM

Q: With CC(C)c1nn(-c2c(Cl)cccc2Cl)c2nc(Cc3ccc(OCCOC(=O)[C@@H](N)C(C)C)cc3)[nH]c(=O)c12 [Compound A60] as the compound, how does the IC50 [2] read?
A: < 10000 nM

Q: And the IC50 [3]?
A: < 1000 nM

Q: CC(C)c1nn(-c2c(Cl)cc(Cl)cc2Cl)c2nc(Cc3ccc(NS(=O)(=O)CCCN4CCN(C(C)C)CC4)cc3)[nH]c(=O)c12 [Compound A39] was tested. Which IC50 [1] did it give?
A: < 100 nM

Q: COCCN1CCN(Cc2ccc(-c3[nH]nc4c3C(=O)c3c(NC(=O)NN5CCOCC5)cccc3-4)cc2)CC1.Cl.Cl [Compound B16, N-[3-(4-{[4-(2-methoxyethyl)piperazinyl]methyl}phenyl)-4-oxoindeno[2,3-d]pyrazol-5-yl](morpholin-4-ylamino)carboxamide dihydrochloride] was tested. Which “Effect on cell cycle distribution” value [4] did it give?
A: Analogous results

Q: And the “Time within which IC50 is reached” value [5]?
A: 30 to 60 min

Q: For CC(C)c1nn(-c2c(Cl)cc(Cl)cc2Cl)c2nc(Cc3ccc(NS(=O)(=O)CCCN4CCCC4)cc3)[nH]c(=O)c12 [Compound A38], which IC50 [1] is on record?
A: < 100 nM

Q: Which “Effect on cell cycle distribution” value [4] does the source give for CC(C)N1CCN(C(=O)COc2ccc(-c3[nH]nc4c3C(=O)c3c(NC(=O)NN5CCOCC5)cccc3-4)cc2)CC1.Cl [Compound A37] here?
A: terminally arrested in G1 and G2, with evidence of apoptosis and endo-reduplication

Q: For CC(C)c1nn(-c2c(Cl)cccc2Cl)c2nc(Cc3ccc(OCCO)cc3)[nH]c(=O)c12 [Compound A59], which IC50 [1] is on record?
A: < 100 nM

Q: Which IC50 [6] does the source give for CC(C)N1CCN(CCOc2ccc(-c3[nH]nc4c3C(=O)c3c(NC(=O)NN5CCOCC5)cccc3-4)cc2)CC1 [E] here?
A: < 10000 nM

Q: CC(C)c1nn(-c2c(Cl)cc(Cl)cc2Cl)c2nc(Cc3ccc(OCCO)cc3)[nH]c(=O)c12 [Compound A61] was tested. Which IC50 [1] did it give?
A: < 100 nM

Q: How did the IC50 [1] turn out when Cc1nc(Cc2nc3c(c(C(C)C)nn3-c3c(Cl)cccc3Cl)c(=O)[nH]2)cs1 [Compound A58] was run?
A: < 100 nM

Q: For CC(C)c1nn(-c2c(Cl)cccc2Cl)c2nc(Cc3ccc(O)c(CN4CCN(C(C)C)CC4)c3)[nH]c(=O)c12 [Compound C], which IC50 [6] is on record?
A: > 10000 nM
